Experimental data published in patent US20250129430A1, “HIGH ATP-AFFINITY PROTEIN AS THERAPEUTIC TARGET FOR INTRACTABLE CANCER MOLECULAR SUBTYPES AND INHIBITOR THEREOF” (VeraVerse Co., Ltd., priority 2021, published 2025).
Counter-ions that a name gives are not always drawn.

Key:
Test in all cases: Cell viability drug screen, 12-point dose-response AUC
Type in all cases: cell-based, human
FU97 = system: FU97; set-up: Average Area Under the Viability Curve (AUC), AUC norm value: scale not given here; settings: FU97 cells, 72 hours
Outline: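 Trapezoidal AUC of a 12-point, DMSO-normalized dose-response curve. Luminescent viability was measured after 72 h of exposure at 37° C to half-log serial dilutions (0.5% DMSO control), dosed 24 h after plating FU97 cells at 5×10^3 per well.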

SNU216 = settings: 72 hours; for Average Area Under the Viability Curve (AUC), AUC norm value: SNU216 cells (non-SEM subtype)
Description: (§1) An FDA-approved small-molecule pharmacological compound (#L1300) and an anticancer compound for research (#L2000) were purchased from Selecckchem and a 10 mM solution was prepared in DMSO. A total of 1,345 compounds were tested the cell viability of the seven EMT gastric cancer cell lines.
(§2) Cells cultured for cell-based drug assay were inoculated into a 96-well white optical plate (Corning) at 5×10^3 cells per well. After 24 hours after inoculation, a 2.5 MJT (primary screen) or a half-log 12-serial diluent (secondary screen) of the pharmacological compound contained in DMSO is added to the cells with a robot using a BioMek FXp liquid processor (Beckman) to add to the cells at 50 mM. The final drug concentration in the 5 ns range and the DMSO specification control (0.5%) were calculated. The cells were then further incubated at 37° C. in a 5% CO2 incubator for 72 hours prior to measuring cell viability using the extra-GLO assay kit (Promega). The luminescent properties were measured after 15 min incubation at room temperature using a plate stacker equipped with a plate stacker. The normalized viability for the DMSO-based control was measured to generate a cell line-specific 12-point dose-response curve for each pharmacological compound, and then the area under the curve (AUC) was calculated using a trapezoidal method. […] The results of the repeated experiments were averaged to generate AUC values for each cell line for each compound.

MKN28 = MKN28 cells, 72 hours
Description: as §1, §2

KATO3 = KATO3 cells, 72 hours
Description: as §1, §2

NCC59 = NCC59 cells, 72 hours
Description: as §1, §2

SNU1 = SNU1 cells, 72 hours
Description: as §1, §2

SNU1967 = SNU1967 cells, 72 hours
Description: as §1, §2

SNU668 = settings: 72 hours; for Average Area Under the Viability Curve (AUC), AUC norm value: SNU668 cells (SEM subtype)
Description: as §1, §2

YCC3 = YCC3 cells, 72 hours
Description: as §1, §2

MKN1 = MKN1 cells, 72 hours
Description: as §1, §2

NCC19 = NCC19 cells, 72 hours
Description: as §1, §2

SNU484 = settings: 72 hours; for Average Area Under the Viability Curve (AUC), AUC norm value: SNU484 cells (SEM subtype)
Description: as §1, §2

SNU1750 = settings: 72 hours; for Average Area Under the Viability Curve (AUC), AUC norm value: SNU1750 cells (SEM subtype)
Description: as §1, §2

YCC11 = settings: 72 hours; for Average Area Under the Viability Curve (AUC), AUC norm value: YCC11 cells (SEM subtype)
Description: as §1, §2

NCC20 = NCC20 cells, 72 hours
Description: as §1, §2

SNU601 = SNU601 cells, 72 hours
Description: as §1, §2

SNU16 = SNU16 cells, 72 hours
Description: as §1, §2

MKN45 = settings: 72 hours; for Average Area Under the Viability Curve (AUC), AUC norm value: MKN45 cells (non-SEM subtype)
Description: as §1, §2

OCUM1 = OCUM1 cells, 72 hours
Description: as §1, §2

SNU620 = SNU620 cells, 72 hours
Description: as §1, §2

NCC24 = NCC24 cells, 72 hours
Description: as §1, §2

SNU719 = SNU719 cells, 72 hours
Description: as §1, §2

MKN74 = MKN74 cells, 72 hours
Description: as §1, §2

SK4 = settings: 72 hours; for Average Area Under the Viability Curve (AUC), AUC norm value: SK4 cells (SEM subtype)
Description: as §1, §2

YCC2 = YCC2 cells, 72 hours
Description: as §1, §2

AGS = settings: 72 hours; for Average Area Under the Viability Curve (AUC), AUC norm value: AGS cells (non-SEM subtype)
Description: as §1, §2

NCI_N87 = NCI_N87 cells, 72 hours
Description: as §1, §2

SNU638 = SNU638 cells, 72 hours
Description: as §1, §2

Hs746T = settings: 72 hours; for Average Area Under the Viability Curve (AUC), AUC norm value: Hs746T cells (SEM subtype)
Description: as §1, §2

## CCCCCCCCCCCCCCCC[n+]1ccccc1 [Cetylpyridinium Chloride]
FU97
  Average Area Under the Viability Curve (AUC), AUC norm value: −2.039
SNU216
  Average Area Under the Viability Curve (AUC), AUC norm value: −0.1483
MKN28
  Average Area Under the Viability Curve (AUC), AUC norm value: 0.4876
KATO3
  Average Area Under the Viability Curve (AUC), AUC norm value: 1.072
NCC59
  Average Area Under the Viability Curve (AUC), AUC norm value: 1.497
SNU1
  Average Area Under the Viability Curve (AUC), AUC norm value: 0.5171
SNU1967
  Average Area Under the Viability Curve (AUC), AUC norm value: −0.5001
SNU668
  Average Area Under the Viability Curve (AUC), AUC norm value: −0.02952
YCC3
  Average Area Under the Viability Curve (AUC), AUC norm value: 0.3901
MKN1
  Average Area Under the Viability Curve (AUC), AUC norm value: 0.9994
NCC19
  Average Area Under the Viability Curve (AUC), AUC norm value: 1.205
SNU484
  Average Area Under the Viability Curve (AUC), AUC norm value: −0.7401
SNU1750
  Average Area Under the Viability Curve (AUC), AUC norm value: −0.3613
YCC11
  Average Area Under the Viability Curve (AUC), AUC norm value: −1.129
NCC20
  Average Area Under the Viability Curve (AUC), AUC norm value: −0.2318
SNU601
  Average Area Under the Viability Curve (AUC), AUC norm value: 2.328
SNU16
  Average Area Under the Viability Curve (AUC), AUC norm value: −0.1534
MKN45
  Average Area Under the Viability Curve (AUC), AUC norm value: 0
OCUM1
  Average Area Under the Viability Curve (AUC), AUC norm value: −0.1441
SNU620
  Average Area Under the Viability Curve (AUC), AUC norm value: 0.09525
NCC24
  Average Area Under the Viability Curve (AUC), AUC norm value: 0.06564
SNU719
  Average Area Under the Viability Curve (AUC), AUC norm value: 1.718
MKN74
  Average Area Under the Viability Curve (AUC), AUC norm value: −0.4176
SK4
  Average Area Under the Viability Curve (AUC), AUC norm value: −1.312
YCC2
  Average Area Under the Viability Curve (AUC), AUC norm value: 0.1421
AGS
  Average Area Under the Viability Curve (AUC), AUC norm value: −0.1044
NCI_N87
  Average Area Under the Viability Curve (AUC), AUC norm value: 1.075
SNU638
  Average Area Under the Viability Curve (AUC), AUC norm value: −0.3142
Hs746T
  Average Area Under the Viability Curve (AUC), AUC norm value: 0.2943

## CC[C@@]1(O)C(=O)OCc2c1cc1n(c2=O)Cc2cc3c(CN(C)C)c(O)ccc3nc2-1 [Topotecan HCI, Topotecan HCl]
FU97
  Average Area Under the Viability Curve (AUC), AUC norm value: −0.8445
SNU216
  Average Area Under the Viability Curve (AUC), AUC norm value: 1.123
MKN28
  Average Area Under the Viability Curve (AUC), AUC norm value: 1.259
KATO3
  Average Area Under the Viability Curve (AUC), AUC norm value: 5.01
NCC59
  Average Area Under the Viability Curve (AUC), AUC norm value: 1.957
SNU1
  Average Area Under the Viability Curve (AUC), AUC norm value: −0.6163
SNU1967
  Average Area Under the Viability Curve (AUC), AUC norm value: −2.648
SNU668
  Average Area Under the Viability Curve (AUC), AUC norm value: −1.128
YCC3
  Average Area Under the Viability Curve (AUC), AUC norm value: 1.923
MKN1
  Average Area Under the Viability Curve (AUC), AUC norm value: −0.9954
NCC19
  Average Area Under the Viability Curve (AUC), AUC norm value: 2.896
SNU484
  Average Area Under the Viability Curve (AUC), AUC norm value: 1.128
SNU1750
  Average Area Under the Viability Curve (AUC), AUC norm value: 0.2818
YCC11
  Average Area Under the Viability Curve (AUC), AUC norm value: −0.573
NCC20
  Average Area Under the Viability Curve (AUC), AUC norm value: −2.367
SNU601
  Average Area Under the Viability Curve (AUC), AUC norm value: −0.5589
SNU16
  Average Area Under the Viability Curve (AUC), AUC norm value: −0.5292
MKN45
  Average Area Under the Viability Curve (AUC), AUC norm value: 1.195
OCUM1
  Average Area Under the Viability Curve (AUC), AUC norm value: −1.681
SNU620
  Average Area Under the Viability Curve (AUC), AUC norm value: −0.7611
NCC24
  Average Area Under the Viability Curve (AUC), AUC norm value: 0.0033
SNU719
  Average Area Under the Viability Curve (AUC), AUC norm value: 3.069
MKN74
  Average Area Under the Viability Curve (AUC), AUC norm value: 0
SK4
  Average Area Under the Viability Curve (AUC), AUC norm value: −0.4515
YCC2
  Average Area Under the Viability Curve (AUC), AUC norm value: 0.1906
AGS
  Average Area Under the Viability Curve (AUC), AUC norm value: −2.159
NCI_N87
  Average Area Under the Viability Curve (AUC), AUC norm value: 2.857
SNU638
  Average Area Under the Viability Curve (AUC), AUC norm value: −0.7133
Hs746T
  Average Area Under the Viability Curve (AUC), AUC norm value: 0.4587

## CC(C)[C@]12O[C@H]1[C@@H]1O[C@]13[C@]1(O[C@H]1C[C@H]1C4=C(CC[C@@]13C)C(=O)OC4)[C@@H]2O [Triptolide]
FU97; 12-point dose-response
  area under the viability curve (AUC), normalized: −0.6238
SNU216; SNU216 cells, 12-point dose-response
  area under the viability curve (AUC), normalized: 1.18
MKN28; 12-point dose-response
  area under the viability curve (AUC), normalized: −0.03132
KATO3; 12-point dose-response
  area under the viability curve (AUC), normalized: 5.715
NCC59; 12-point dose-response
  area under the viability curve (AUC), normalized: 0.356
SNU1; 12-point dose-response
  area under the viability curve (AUC), normalized: −0.1207
SNU1967; 12-point dose-response
  area under the viability curve (AUC), normalized: −0.4902
SNU668; SNU668 cells, 12-point dose-response
  area under the viability curve (AUC), normalized: −1.284
YCC3; 12-point dose-response
  area under the viability curve (AUC), normalized: 2.62
MKN1; 12-point dose-response
  area under the viability curve (AUC), normalized: 0.6772
NCC19; 12-point dose-response
  area under the viability curve (AUC), normalized: −1.507
SNU484; SNU484 cells, 12-point dose-response
  area under the viability curve (AUC), normalized: −1.234
SNU1750; SNU1750 cells, 12-point dose-response
  area under the viability curve (AUC), normalized: −0.4213
YCC11; YCC11 cells, 12-point dose-response
  area under the viability curve (AUC), normalized: 0.4144
NCC20; 12-point dose-response
  area under the viability curve (AUC), normalized: 0
SNU601; 12-point dose-response
  area under the viability curve (AUC), normalized: 0.3854
SNU16; 12-point dose-response
  area under the viability curve (AUC), normalized: 1.9544
MKN45; MKN45 cells, 12-point dose-response
  area under the viability curve (AUC), normalized: 1.157
OCUM1; 12-point dose-response
  area under the viability curve (AUC), normalized: 1.992
SNU620; 12-point dose-response
  area under the viability curve (AUC), normalized: −0.986
NCC24; 12-point dose-response
  area under the viability curve (AUC), normalized: −1.656
SNU719; 12-point dose-response
  area under the viability curve (AUC), normalized: 4.573
MKN74; 12-point dose-response
  area under the viability curve (AUC), normalized: −0.8231
SK4; SK4 cells, 12-point dose-response
  area under the viability curve (AUC), normalized: −1.232
YCC2; 12-point dose-response
  area under the viability curve (AUC), normalized: 0.6309
AGS; AGS cells, 12-point dose-response
  area under the viability curve (AUC), normalized: −1.267
NCI_N87; 12-point dose-response
  area under the viability curve (AUC), normalized: −0.7868
SNU638; 12-point dose-response
  area under the viability curve (AUC), normalized: 0.828
Hs746T; Hs746T cells, 12-point dose-response
  area under the viability curve (AUC), normalized: 0.17
